The record followed here is patent US9200015B2, “Inositol hexakisphosphate analogs and uses thereof” (priority 2011, dated 2015).

“Also recorded” adds a separate entry of the source. Read-outs that look alike come from different tables or passages of the source. A value given as a limit tells only on which side of the number the result lay.

Series [1] concerns TcdA and TcdB holotoxins. The class given is biochemical, Clostridium difficile. The settings on record: for AC50: read-out: AC50 (concentration that provides half the maximum activity). As for the experimental part:
(§1) In Vitro Testing of Nitroso-InsP6 Derivatives. In vitro testing and measurement of binding affinities of compounds are performed using toxin cleavage assays, and by radioligand or BIACORE-toxin binding studies, respectively. For medium throughput toxin cleavage assays, autocleavage of 1 μg TcdA and TcdB holotoxins is performed in 25 μL 20 mM Tris-HCI, 150 mM NaCI (pH 7.4) with and without InsP6 for 10-60 min at 37° C. (FIG. 6). Cleavage reactions are then stopped with SDS-PAGE loading buffer and boiling at 96° C. for 5 min. Samples are then run under reducing conditions on 4-20% gradient gels and cleavage products stained with GelcodeBiue™ for 1 hr and cleared in water overnight. AC50 and IC50 concentrations are calculated by measuring the relative absorbance of cleavage fragments relative to intact toxin using a LiCor Odyssey infrared scanner (λ=680 nm). Cleavage is plotted against ligand concentration using four-parameter logistic curve fitting on SigmaPlot 11.0 software. If the toxin cleavage efficiency remains unaltered in purified nitroso-InsP6 fractions, then toxin Rac1 glucosylation and cell rounding assays are initiated to evaluate cytoprotection in cell culture systems. […] Thus, enzymatic digestions of nitroso-InsP6 derivatives are carried out with EC 3.1.3.8 (type 3 phytase); EC 3.1.3.72 (type 5 phytase), and EC 3.1.3.26 (type 4/6 phytase) to test whether the NO-modifications are nonhydrolysable (e.g., FIG. 7).

A further series deals with phytase. To be noted: FIG. 7. As for the experimental part:
In Vitro Testing of Nitroso-InsP6 Derivatives. In vitro testing and measurement of binding affinities of compounds are performed using toxin cleavage assays, and by radioligand or BIACORE-toxin binding studies, respectively. For medium throughput toxin cleavage assays, autocleavage of 1 μg TcdA and TcdB holotoxins is performed in 25 μL 20 mM Tris-HCI, 150 mM NaCI (pH 7.4) with and without InsP6 for 10-60 min at 37° C. (FIG. 6). Cleavage reactions are then stopped with SDS-PAGE loading buffer and boiling at 96° C. for 5 min. Samples are then run under reducing conditions on 4-20% gradient gels and cleavage products stained with GelcodeBiue™ for 1 hr and cleared in water overnight. AC50 and IC50 concentrations are calculated by measuring the relative absorbance of cleavage fragments relative to intact toxin using a LiCor Odyssey infrared scanner (λ=680 nm). Cleavage is plotted against ligand concentration using four-parameter logistic curve fitting on SigmaPlot 11.0 software. If the toxin cleavage efficiency remains unaltered in purified nitroso-InsP6 fractions, then toxin Rac1 glucosylation and cell rounding assays are initiated to evaluate cytoprotection in cell culture systems. […]

Series [2] deals with TcdA and TcdB holotoxins (Clostridioides difficile, UniProt P18177). The class given is biochemical, Clostridium difficile. As for the experimental part:
as §1

The test system of the next series is Caco-2 colonocytes. The series is described as follows: Inhibition of toxin-induced cytotoxicity in Caco-2 colonocytes. The class given is cell-based. The settings on record: Homo sapiens, FIG. 3A right.
Series [3] relates to C. difficile (strain VPI 10463). Briefly: Murine CDI model, InsP6 given intragastrically. The class given is in vivo, C57BL/6 mice. To be noted: for Protection of mice from CDI (survival): oral/intragastric 0.25 and 2.5 mg/kg/day, 10^6 C. difficile, survival at day 6. As for the experimental part:
FIGS. 3A-3D show therapeutic allostery and examples of the assays to test designed compounds. […] (FIGS. 3C-3D) Kaplan-Meier survival plots of infected mice. C57BL/6 mice were inoculated with 10^6 C. difficile.
Optimization of Phytase-Resistant InsP6 Analogues for CDI Therapy. Aspects of the present invention provide compositions and methods of neutralizing C. difficile exotoxins in the extracellular gut environment. […] C57BL/6 mice were administered antibiotics and then orally inoculated with 10^4-to-10^6 C. difficile (strain VPI 10463). Disease outcome measures included evidence of inflammation and fluid secretion in the caecum and colon of severely afflicted animals, and of characteristic pseudomembraneous histopathologic lesions in the colonic mucosa. […] The highest bacterial dose (10^6 CFU) was used to test for InsP6 efficacy given intra-gastrically (0.25-to-2.5 mg/kg/day; range is within the recommended oral daily dose for humans (1,020 mg/day)).

The subject of the next series is C. difficile. Briefly: Experimental CDI model, delivery by implanted mini-osmotic pumps. The settings on record: 12.5 mg/kg/day by 7 day mini-osmotic pumps, from 1 day before inoculation with 10^6 bacteria. The class given is in vivo, mice. An excerpt: In this set of experiments, vehicle treatment was associated with 100% mortality, vs. 40% and 10% for InsP6 and nitroso-InsP6 groups, respectively.
Because of the current uncertainty of the nitroso-InsP6 chemistry, there may be potential limitations to oral nitroso-InsP6 delivery as this molecule may show poor colonic bioavailability due to degradation and absorption in the small intestine.

The mark [4] stands for this setting: Table 1, representative inositol analogs.

TcdA and TcdB holotoxins (Clostridioides difficile, UniProt P18177), sequence (P18177 2-2366 limits assumed): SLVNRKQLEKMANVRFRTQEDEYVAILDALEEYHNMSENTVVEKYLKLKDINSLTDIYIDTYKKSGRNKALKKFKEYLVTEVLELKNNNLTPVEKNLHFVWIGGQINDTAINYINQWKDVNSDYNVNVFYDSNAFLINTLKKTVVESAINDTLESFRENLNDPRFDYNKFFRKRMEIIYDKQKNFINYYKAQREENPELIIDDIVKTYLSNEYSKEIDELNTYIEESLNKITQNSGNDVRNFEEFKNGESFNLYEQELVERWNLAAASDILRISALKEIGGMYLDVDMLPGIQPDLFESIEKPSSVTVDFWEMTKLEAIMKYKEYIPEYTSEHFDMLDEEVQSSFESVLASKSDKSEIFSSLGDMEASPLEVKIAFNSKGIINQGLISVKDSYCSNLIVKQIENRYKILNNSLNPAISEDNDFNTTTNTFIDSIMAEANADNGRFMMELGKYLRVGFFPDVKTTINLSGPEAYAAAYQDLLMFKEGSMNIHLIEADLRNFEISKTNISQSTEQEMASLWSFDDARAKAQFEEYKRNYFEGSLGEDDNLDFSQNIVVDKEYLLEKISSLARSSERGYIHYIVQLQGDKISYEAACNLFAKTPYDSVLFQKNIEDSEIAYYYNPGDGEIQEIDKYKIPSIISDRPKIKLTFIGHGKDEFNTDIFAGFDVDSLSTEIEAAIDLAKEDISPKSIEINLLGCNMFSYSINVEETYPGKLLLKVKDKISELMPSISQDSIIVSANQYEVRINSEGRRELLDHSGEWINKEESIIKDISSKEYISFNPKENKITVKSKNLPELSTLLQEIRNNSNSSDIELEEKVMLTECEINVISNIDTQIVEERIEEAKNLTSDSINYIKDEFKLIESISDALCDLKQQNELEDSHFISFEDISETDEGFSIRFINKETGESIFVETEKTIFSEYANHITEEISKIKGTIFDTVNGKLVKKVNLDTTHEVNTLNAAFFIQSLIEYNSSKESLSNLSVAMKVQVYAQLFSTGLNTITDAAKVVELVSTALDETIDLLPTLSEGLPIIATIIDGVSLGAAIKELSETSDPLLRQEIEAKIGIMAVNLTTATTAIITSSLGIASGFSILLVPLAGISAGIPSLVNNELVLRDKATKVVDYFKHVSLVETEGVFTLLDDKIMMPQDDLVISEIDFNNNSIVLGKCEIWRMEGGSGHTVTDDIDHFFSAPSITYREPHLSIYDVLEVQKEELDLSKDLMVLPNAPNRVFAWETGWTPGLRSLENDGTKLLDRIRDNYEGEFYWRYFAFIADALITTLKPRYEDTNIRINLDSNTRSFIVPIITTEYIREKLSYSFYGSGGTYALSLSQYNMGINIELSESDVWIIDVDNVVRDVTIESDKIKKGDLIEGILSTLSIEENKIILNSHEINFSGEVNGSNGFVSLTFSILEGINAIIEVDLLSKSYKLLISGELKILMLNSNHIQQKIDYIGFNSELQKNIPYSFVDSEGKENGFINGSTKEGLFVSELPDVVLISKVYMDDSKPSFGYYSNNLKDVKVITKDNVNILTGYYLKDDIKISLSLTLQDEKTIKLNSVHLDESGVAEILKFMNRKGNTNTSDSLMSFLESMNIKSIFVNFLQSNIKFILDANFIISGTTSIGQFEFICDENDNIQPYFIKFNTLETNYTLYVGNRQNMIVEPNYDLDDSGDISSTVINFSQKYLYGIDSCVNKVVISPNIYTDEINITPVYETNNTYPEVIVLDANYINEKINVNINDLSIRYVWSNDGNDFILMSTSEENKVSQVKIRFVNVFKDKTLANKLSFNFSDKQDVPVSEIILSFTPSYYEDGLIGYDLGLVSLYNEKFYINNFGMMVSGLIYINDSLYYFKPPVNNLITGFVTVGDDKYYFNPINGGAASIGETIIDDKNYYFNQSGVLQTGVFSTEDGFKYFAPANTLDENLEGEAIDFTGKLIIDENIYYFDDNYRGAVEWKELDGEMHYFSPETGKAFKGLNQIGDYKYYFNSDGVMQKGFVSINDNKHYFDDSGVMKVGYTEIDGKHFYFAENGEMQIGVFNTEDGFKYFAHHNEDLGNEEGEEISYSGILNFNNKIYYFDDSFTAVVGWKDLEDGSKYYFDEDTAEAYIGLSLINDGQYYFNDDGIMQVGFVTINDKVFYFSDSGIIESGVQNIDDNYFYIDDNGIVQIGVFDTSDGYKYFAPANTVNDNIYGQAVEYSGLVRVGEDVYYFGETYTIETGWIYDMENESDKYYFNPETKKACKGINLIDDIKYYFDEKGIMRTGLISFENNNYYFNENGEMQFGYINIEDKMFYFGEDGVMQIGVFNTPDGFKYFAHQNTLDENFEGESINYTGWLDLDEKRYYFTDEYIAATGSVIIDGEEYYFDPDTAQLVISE

As to `O=P(O)(O)OC1C(O)C(OP(=O)(O)O)C(OP(=O)(O)O)C(OP(=O)(O)O)C1O` (stereo not drawn) [Myo-InsP4(2,6), myo-inositol-(1,3,4,5-tetrakisphosphate)], the AC50 with TcdA and TcdB holotoxins [1] (setting [4]) is more than 1000 µM. As for `O=P(O)(O)OC1C(O)C(OP(=O)(O)O)C(OP(=O)(O)O)C(OP(=O)(O)O)C1O` (stereo not drawn) [Myo-InsP4(4,6), myo-inositol-(1,2,3,5-tetrakisphosphate)], the AC50 in the series on TcdA and TcdB holotoxins [1] (setting [4]) is more than 1000 µM. Still for that read-out and setting: with `O=P(O)(O)OC1C(O)C(OP(=O)(O)O)C(OP(=O)(O)O)C(OP(=O)(O)O)C1OP(=O)(O)O` (stereo not drawn) [Myo-InsP5(1), myo-inositol-(2,3,4,5,6-pentakisphosphate)] the figure was 8.67 µM; with `O=P(O)(O)OC1C(O)C(OP(=O)(O)O)C(OP(=O)(O)O)C(OP(=O)(O)O)C1OP(=O)(O)O` (stereo not drawn) [Myo-InsP5(2), myo-inositol-(1,3,4,5,6-pentakisphosphate)], 10.5 µM. Take `O=P(O)(O)OC1C(O)C(OP(=O)(O)O)C(OP(=O)(O)O)C(OP(=O)(O)O)C1OP(=O)(O)O` (stereo not drawn) [Myo-InsP5(3), myo-inositol-(1,2,4,5,6-pentakisphosphate)]: the AC50 in the series on TcdA and TcdB holotoxins [1] (setting [4]) came out at 95.6 µM. With `O=P(O)(O)OC1[C@H](OP(=O)(O)O)[C@H](OP(=O)(O)O)C(O)[C@H](OP(=O)(O)O)[C@H]1OP(=O)(O)O` (stereo partly drawn) [Myo-InsP5(4), myo-inositol-(1,2,3,5,6-pentakisphosphate)], the AC50 in the series on TcdA and TcdB holotoxins [1] was more than 1000 µM. In the case of `OP(O)(=S)OC1C(OP(O)(O)=S)C(OP(O)(O)=S)C(OP(O)(O)=S)C(OP(O)(O)=S)C1OP(O)(O)=S` [Myo-InsP6(S), myo-inositol-(1,2,3,4,5,6-phosphorothioate)], the AC50 in the series with TcdA and TcdB holotoxins [1] (setting [4]) is 1.99 µM. Besides, the Phytase resistance entry with phytase is given as “increased phytase resistance”. Take `O=P(O)(O)O[C@H]1[C@H](OP(=O)(O)O)[C@@H](OP(=O)(O)O)[C@H](OP(=O)(O)O)[C@@H](OP(=O)(O)O)[C@H]1OP(=O)(O)O` [Myo-InsP6, myo-inositol-hexakisphosphate]: the “IC50, C. difficile toxins autocleaved” value against TcdA and TcdB holotoxins [2] (FIGS. 3A-3B) came out at 10 µM. Also, the “AC50, toxin autocleavage” value on TcdA and TcdB holotoxins [2] (TcdB, FIG. 3A left) was found to be 10 µM. For the same compound, in the series on TcdA and TcdB holotoxins [1], the AC50 came to 14.8 µM. Moreover, half-maximal inhibition in the series on Caco-2 colonocytes (IC50) was put at 10 µM. Moreover, the “Statistical significance of the protective effect” value in series [3] (2.5 mg/kg group) is given as “statistically significant”. In series [3], the “Protection of mice from CDI (survival)” value was “dose dependently protects mice from CDI; also recorded: dose-dependent protective effects”. The same compound gave a Mortality in the series on C. difficile of 40%.

Take `O[C@H]1[C@H](O)[C@@H](O)[C@H](O)[C@@H](O)[C@H]1O` [myo-inositol, (1R,2R,3S,4S,5R,6S)-cyclohexane-1,2,3,4,5,6-hexol]: the “Protection of mice from CDI (survival)” value in series [3] is given as “not evident”.

For the compound “(1/3)-phospho-myo-inositol hexaakisphosphate [Myo-InsP7(1/3)]”, the AC50 in the series with TcdA and TcdB holotoxins [1] (setting [4]) is 3.04 µM. For inositolhexakissulfate [InS6], the “Toxin cleavage activity (preliminary studies)” value in the series with TcdA and TcdB holotoxins [1] was “active compound”.

By IC50 is commonly meant the midpoint of a concentration-inhibition curve. Higher therefore signals lower potency.
